# Measurements as given in US10550105B2 (Ribon Therapeutics Inc., priority 2018, dated 2020).
# Molecular target: PARP7 (Homo sapiens (Human), UniProt Q7Z3E1)
# Test: Enzymatic assay for inhibition of PARP7: TR-FRET displacement of biotinylated Probe A from the TIPARP active site
# Assay type: binding
# Conditions: Table A-1
# Method: 20 nL of a dose response curve of each test compound was spotted in black 384-well polystyrene proxiplates (Perkin Elmer) using a Mosquito (TTP Labtech). […] Reactions were incubated at 25° C. for an additional 30 min, then read on an Envision platereader equipped with a LANCE/DELFIA top mirror (Perkin Elmer) using excitation of 320 nm and emission of 615 nm and […] with a 90 μs delay. The ratio of the 665/615 nm emission were calculated for each well to determine the amount of complex of TIPARP and Probe A in each well. […] The Hill Coefficient is normally allowed to float but may also be fixed at 1 in a 3-parameter fit. Y is the % inhibition and x is the compound concentration.
# Chain of PARP7 (Q7Z3E1 whole entry): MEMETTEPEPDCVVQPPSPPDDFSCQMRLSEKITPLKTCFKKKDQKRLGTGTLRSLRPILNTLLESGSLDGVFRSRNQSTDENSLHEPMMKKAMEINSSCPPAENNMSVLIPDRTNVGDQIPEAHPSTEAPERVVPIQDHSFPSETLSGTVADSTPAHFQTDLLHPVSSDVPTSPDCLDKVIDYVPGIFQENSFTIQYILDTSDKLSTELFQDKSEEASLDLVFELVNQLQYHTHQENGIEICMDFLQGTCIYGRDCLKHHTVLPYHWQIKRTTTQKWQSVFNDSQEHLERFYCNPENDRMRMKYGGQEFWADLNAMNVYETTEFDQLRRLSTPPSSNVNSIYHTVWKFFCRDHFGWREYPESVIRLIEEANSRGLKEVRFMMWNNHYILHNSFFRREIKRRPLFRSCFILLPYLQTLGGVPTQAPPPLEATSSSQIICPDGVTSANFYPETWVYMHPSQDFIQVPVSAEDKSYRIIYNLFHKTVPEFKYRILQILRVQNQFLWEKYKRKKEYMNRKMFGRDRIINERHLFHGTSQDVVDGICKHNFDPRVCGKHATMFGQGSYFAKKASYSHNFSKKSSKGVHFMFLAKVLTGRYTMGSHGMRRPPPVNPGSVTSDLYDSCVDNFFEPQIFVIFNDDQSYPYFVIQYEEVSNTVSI
row,Molecule,IC50
1,"O=c1[nH]ncc(N2Cc3cc(F)c(CNC4CCNCC4)cc3C2)c1C(F)(F)F [Example 23, 5-(5-fluoro-6-[[(piperidin-4-yl)amino]methyl]-2,3-dihydro-1H-isoindol-2-yl)-4-(trifluoromethyl)-2,3-dihydropyridazin-3-one]",< 100 nM
2,"CN1CCN(CCOc2cccc3c2CN(c2cn[nH]c(=O)c2Cl)C3)CC1 [Example 255, 4-Chloro-5-(4-(2-(4-methylpiperazin-1-yl)ethoxy)isoindolin-2-yl)pyridazin-3(2H)-one]",≥ 1000 nM
3,"N#Cc1cnc(N2CCN(C(=O)CCOC[C@@H]3CCCN3c3cn[nH]c(=O)c3C(F)(F)F)CC2)nc1 [Example 461, (S)-2-(4-(3-((1-(6-Oxo-5-(trifluoromethyl)-1,6-dihydropyridazin-4-yl)pyrrolidin-2-yl)methoxy)propanoyl)piperazin-1-yl)pyrimidine-5-carbonitrile]",< 100 nM
4,"CC(=O)N1CCC(Oc2cccc3c2CN(c2cn[nH]c(=O)c2Cl)C3)CC1 [Example 258, 5-(4-((1-Acetylpiperidin-4-yl)oxy)isoindolin-2-yl)-4-chloropyridazin-3(2H)-one]",≥ 1000 nM
5,"N#Cc1ccc(N2CCN(C(=O)c3cccc(OCCOc4cn[nH]c(=O)c4C(F)(F)F)c3)CC2)nc1 [Example 42, 6-(4-[[3-(2-[[6-oxo-5-(trifluoromethyl)-1,6-dihydropyridazin-4-yl]oxy]ethoxy)phenyl]carbonyl]piperazin-1-yl)pyridine-3-carbonitrile]",< 100 nM
6,"N#Cc1ccc(N2CCN(C(=O)c3cccc(OCC4CCCN4c4cn[nH]c(=O)c4C(F)(F)F)c3)CC2)nc1 (stereo not shown) [Example 435, 6-(4-(3-((1-(6-Oxo-5-(trifluoromethyl)-1,6-dihydropyridazin-4-yl)pyrrolidin-2-yl)methoxy)benzoyl)piperazin-1-yl)nicotinonitrile]",< 100 nM
7,"Cc1ccc(N2CCN(C(=O)CCOC[C@H](C)Nc3cn[nH]c(=O)c3C(F)(F)F)CC2)nc1 [Example 671, (S)-5-((1-(3-(4-(5-Methylpyridin-2-yl)piperazin-1-yl)-3-oxopropoxy)propan-2-yl)amino)-4-(trifluoromethyl)pyridazin-3(2H)-one]",< 100 nM
8,"C[C@@H](COCCC(=O)N1CCN(c2ncc(Cl)cn2)CC1)Oc1cn[nH]c(=O)c1Br [Example 609, 4-Bromo-5-[[(2S)-1-[3-[4-(5-chloropyrimidin-2-yl)piperazin-1-yl]-3-oxopropoxy]propan-2-yl]oxy]-2,3-dihydropyridazin-3-one]",< 100 nM
9,"N#Cc1cnc(N2CCN(C(=O)c3cccc(OC[C@@H]4c5ccccc5CN4c4cn[nH]c(=O)c4C(F)(F)F)c3)CC2)nc1 [Example 365, (S)-2-(4-(3-((2-(6-oxo-5-(trifluoromethyl)-1,6-dihydropyridazin-4-yl)isoindolin-1-yl)methoxy)benzoyl)piperazin-1-yl)pyrimidine-5-carbonitrile]",< 100 nM
10,"CC[C@@H](COc1cn[nH]c(=O)c1C(F)(F)F)OCCC(=O)N1CCN(c2ncc(Cl)cn2)CC1 [Example 591 Isomer B, 5-[(2S)-2-[3-[4-(5-Chloropyrimidin-2-yl)piperazin-1-yl]-3-oxopropoxy]butoxy]-4-(trifluoromethyl)-2,3-dihydropyridazin-3-one]",< 100 nM
11,"N#Cc1ccc(N2CCN(C(=O)c3cncc(OCC4CCCN4c4cn[nH]c(=O)c4C(F)(F)F)c3)CC2)nc1 (stereo not shown) [Example 442, 6-(4-(5-((1-(6-Oxo-5-(trifluoromethyl)-1,6-dihydropyridazin-4-yl)pyrrolidin-2-yl)methoxy)nicotinoyl)piperazin-1-yl)nicotinonitrile]",< 100 nM
12,"N#Cc1cccnc1N1CCN(C(=O)c2cccc(OC[C@H]3c4ccccc4CN3c3cn[nH]c(=O)c3C(F)(F)F)c2)CC1 [Example 360, (R)-2-(4-(3-((2-(6-Oxo-5-(trifluoromethyl)-1,6-dihydropyridazin-4-yl)isoindolin-1-yl)methoxy)benzoyl)piperazin-1-yl)nicotinonitrile]",≥ 1000 nM
13,"[2H]C1([2H])N(C(=O)CCOC[C@H](C)Oc2cn[nH]c(=O)c2C(F)(F)F)C([2H])([2H])C([2H])([2H])N(c2ccc(C#N)cn2)C1([2H])[2H] [Example 714, (S)-6-(4-(3-(2-((6-Oxo-5-(trifluoromethyl)-1,6-dihydropyridazin-4-yl)oxy)propoxy)propanoyl)piperazin-1-yl-2,2,3,3,5,5,6,6-d8)nicotinonitrile]",< 100 nM
14,"C[C@@H](COCCC(=O)N1CCCN(c2ncc(C(F)(F)F)cn2)CC1)Nc1cn[nH]c(=O)c1C(F)(F)F [Example 669, (S)-5-((1-(3-Oxo-3-(4-(5-(trifluoromethyl)pyrimidin-2-yl)-1,4-diazepan-1-yl)propoxy)propan-2-yl)amino)-4-(trifluoromethyl)pyridazin-3(2H)-one]",< 100 nM
15,"N#Cc1ccc(N2CCN(C(=O)CCNC[C@@H]3c4ccccc4CN3c3cn[nH]c(=O)c3C(F)(F)F)CC2)nc1 [Example 146A, 6-[4-[3-([[(1S)-2-[6-oxo-5-(trifluoromethyl)-1,6-dihydropyridazin-4-yl]-2,3-dihydro-1H-isoindol-1-yl]methyl]amino)propanoyl]piperazin-1-yl]pyridine-3-carbonitrile]",< 100 nM
16,"6-[4-(3-[[(1S,2S)-1-[[6-Oxo-5-(trifluoromethyl)-1-[[2-(trimethylsilyl)ethoxy]methyl]-1,6-dihydropyridazin-4-yl]amino]-2,3-dihydro-1H-inden-2-yl]oxy]propanoyl)piperazin-1-yl]pyridine-3-carbonitrile [Example 537 Isomer A]",≥ 1000 nM

row,Molecule,IC50
1,"O=C(c1cncc(OC[C@@H]2c3ccccc3CN2c2cn[nH]c(=O)c2C(F)(F)F)c1)N1CCN(c2ncc(C(F)(F)F)cn2)CC1 [Example 392, (S)-4-(Trifluoromethyl)-5-(1-(((5-(4-(5-(trifluoromethyl)pyrimidin-2-yl)piperazine-1-carbonyl)pyridin-3-yl)oxy)methyl)isoindolin-2-yl)pyridazin-3(2H)-one]",< 100 nM
2,"N#Cc1ccc(N2CCN(C(=O)CCO[C@@H]3Cc4ccccc4[C@H]3Nc3cn[nH]c(=O)c3C(F)(F)F)CC2)nc1 (single isomer, unassigned) [Example 537 Isomer B]",< 100 nM
3,"O=c1[nH]ncc(N2Cc3cc(F)c(OC4CCCNC4)cc3C2)c1C(F)(F)F (stereo not shown) [Example 58, 5-[5-fluoro-6-(piperidin-3-yloxy)-2,3-dihydro-1H-isoindol-2-yl]-4-(trifluoromethyl)-2,3-dihydropyridazin-3-one]",< 100 nM
4,"COCc1cccc2c1CN(c1cn[nH]c(=O)c1C(F)(F)F)C2 [Example 260, 5-(4-(Methoxymethyl)isoindolin-2-yl)-4-(trifluoromethyl)pyridazin-3(2H)-one]",< 100 nM
5,"N#Cc1ccc(N2CCN(C(=O)c3cc(OC[C@@H]4c5ccccc5CN4c4cn[nH]c(=O)c4C(F)(F)F)ccn3)CC2)nc1 [Example 357, (S)-6-(4-(4-((2-(6-Oxo-5-(trifluoromethyl)-1,6-dihydropyridazin-4-yl)isoindolin-1-yl)methoxy)picolinoyl)piperazin-1-yl)nicotinonitrile]",< 100 nM
6,C[C@@H](COCCC(=O)N1CCN(c2ncc(Cl)cn2)CC1)Nc1cn[nH]c(=O)c1Br [Example 602],< 100 nM
7,"C[C@@H](COCCC(=O)N1CCN(c2ncc(C(F)(F)F)cn2)C[C@@H]1C)Nc1cn[nH]c(=O)c1C(F)(F)F (single isomer, unassigned) [Example 619 Isomer A]",< 100 nM
8,"O=c1[nH]ncc(N2Cc3cc(F)c(OCC4CCNCC4)cc3C2)c1C(F)(F)F [Example 20, 5-[5-fluoro-6-(piperidin-4-ylmethoxy)-2,3-dihydro-1H-isoindol-2-yl]-4-(trifluoromethyl)-2,3-dihydropyridazin-3-one]",< 100 nM
9,"O=c1[nH]ncc(N2Cc3cccc(OC4CCNCC4)c3C2)c1C(F)(F)F [Example 170, 5-(4-(Piperidin-4-yloxy)isoindolin-2-yl)-4-(trifluoromethyl)pyridazin-3(2H)-one]",< 100 nM
10,"O=c1[nH]ncc(N2Cc3cccc(OCc4ccncc4)c3C2)c1C(F)(F)F [Example 196, 5-(4-(Pyridin-4-ylmethoxy)isoindolin-2-yl)-4-(trifluoromethyl)pyridazin-3(2H)-one]",< 100 nM
11,"CC(=O)N1CCC(Oc2cc(F)c3c(c2)CN(c2cn[nH]c(=O)c2C(F)(F)F)C3)CC1 [Example 4, 5-[6-[(1-acetylpiperidin-4-yl)oxy]-4-fluoro-2,3-dihydro-1H-isoindol-2-yl]-4-(trifluoromethyl)-2,3-dihydropyridazin-3-one]",< 100 nM
12,"N#Cc1ccc(NCCC(=O)Nc2cncc(OCC3c4ccccc4CN3c3cn[nH]c(=O)c3C(F)(F)F)c2)nc1 (stereo not shown) [Example 63, 3-[(5-cyanopyridin-2-yl)amino]-N-[5-([2-[6-oxo-5-(trifluoromethyl)-1,6-dihydropyridazin-4-yl]-2,3-dihydro-1H-isoindol-1-yl]methoxy)pyridin-3-yl]propanamide]",< 100 nM
13,"N#Cc1ccc(N2CCN(C(=O)[C@@H]3CCC[C@@H](OC[C@@H]4CCCN4c4cn[nH]c(=O)c4C(F)(F)F)C3)CC2)nc1 (single isomer, unassigned) [Example 57 Isomer B]",< 100 nM
14,"CC[C@@H](COCCC(=O)N1CCN(c2ncc(C(F)(F)F)cn2)CC1)Nc1cn[nH]c(=O)c1C(F)(F)F [Example 585, 5-[[(2S)-1-(3-Oxo-3-[4-[5-(trifluoromethyl)pyrimidin-2-yl]piperazin-1-yl]propoxy)butan-2-yl]amino]-4-(trifluoromethyl)-2,3-dihydropyridazin-3-one]",< 100 nM
15,"C[C@@H](CNCCC(=O)N1CCN(c2ncc(C(F)(F)F)cn2)CC1)Oc1cn[nH]c(=O)c1C(F)(F)F [Example 615, (S)-5-((1-((3-Oxo-3-(4-(5-(trifluoromethyl)pyrimidin-2-yl)piperazin-1-yl)propyl)amino)propan-2-yl)oxy)-4-(trifluoromethyl)pyridazin-3(2H)-one]",100 to 1000 nM
